Laboratory results as given in ChEMBL document CHEMBL3132784, “Synthesis and biological evaluation of new conformationally restricted S-DABO hybrids as non-nucleoside inhibitors of HIV-1 reverse transcriptase” (Medchemcomm, 2014).

Legend:
[1] = Selectivity index, ratio of CC50 for human MT4 cells to EC50 for wild-type HIV-1 3B infected in human MT4 cells; assay type: toxicity, cell-based; conditions: read-out: Ratio CC50/EC50
[2] = tested on: Human immunodeficiency virus 1; test: Antiviral activity against HIV-1 RES056 harboring RT K103N+Y181C double mutant infected in human MT4 cells assessed as protection against virus-induced cytopathic effect measured 5 days post-infection by MTT assay; assay type: functional, organism-based; conditions: Human immunodeficiency virus 1, RES056, MT4, 120 h
[3] = tested on: Human immunodeficiency virus 1; test: Antiviral activity against wild-type HIV-1 3B infected in human MT4 cells assessed as protection against virus-induced cytopathic effect measured 5 days post-infection by MTT assay; assay type: functional, organism-based; conditions: Human immunodeficiency virus 1, 3B, MT4, 120 h
[4] = tested on: Human immunodeficiency virus 2; test: Antiviral activity against HIV-2 ROD infected in human MT4 cells assessed as protection against virus-induced cytopathic effect measured 5 days post-infection by MTT assay; assay type: functional, organism-based; conditions: Human immunodeficiency virus 2, ROD, MT4, 120 h
[5] = Cytotoxicity against mock-infected human MT4 cells assessed as decrease in cell viability measured 5 days post-infection by MTT assay; assay type: cell-based
[6] = molecular target: Human immunodeficiency virus type 1 reverse transcriptase (Human immunodeficiency virus 1, UniProt Q72547); test: Inhibition of HIV-1 wild type recombinant reverse transcriptase p66/p51 assessed as RNA-DNA heteroduplex formation using poly(rA) template/oligo(dT)16 primer incubated prior to enzyme addition by spectrofluorometer analysis

COc1ccc(CSc2nc(C(C#N)c3cc(F)cc(F)c3)c(C)c(=O)[nH]2)cc1 (stereo not drawn)
selectivity ratio [1]: 7
EC50 [2]: > 154 µM
EC50 [3]: 21.3 µM
EC50 [4]: > 154 µM
CC50 at 120 h [5]: 154 µM

COc1ccc(CSc2nc(C(C#N)c3ccc(F)cc3F)c(C)c(=O)[nH]2)cc1 (stereo not drawn)
selectivity ratio [1]: 8
EC50 [2]: > 157 µM
EC50 [3]: 20.7 µM
EC50 [4]: > 157 µM
CC50 at 120 h [5]: 157 µM

COc1ccc(CSc2nc(C(C#N)c3c(Cl)cccc3Cl)c(C)c(=O)[nH]2)cc1 (stereo not drawn)
selectivity ratio [1]: 252
IC50 [6]: 0.23 µM
EC50 [2]: > 48.8 µM
EC50 [3]: 0.19 µM
EC50 [4]: > 48.8 µM
CC50 at 120 h [5]: 48.8 µM

COc1ccc(CSc2nc(C(C#N)c3ccccc3Br)c(C(C)C)c(=O)[nH]2)cc1 (stereo not drawn)
selectivity ratio [1]: 6
EC50 [2]: > 26.7 µM
EC50 [3]: 4.46 µM
EC50 [4]: > 26.7 µM
CC50 at 120 h [5]: 26.7 µM

CCc1c(C(C#N)c2ccccc2F)nc(SCc2ccc(OC)cc2)[nH]c1=O (stereo not drawn)
selectivity ratio [1]: 66
EC50 [2]: > 109 µM
EC50 [3]: 1.66 µM
EC50 [4]: > 109 µM
CC50 at 120 h [5]: 109 µM

COc1ccc(CSc2nc(C(C#N)c3ccc(Cl)cc3)c(C)c(=O)[nH]2)cc1 (stereo not drawn)
selectivity ratio [1]: < 1
EC50 [3]: > 28.9 µM
EC50 [4]: > 28.9 µM
CC50 at 120 h [5]: 28.9 µM

Cc1cn([C@H]2C[C@H](N=[N+]=[N-])[C@@H](CO)O2)c(=O)[nH]c1=O [ZIDOVUDINE]
selectivity ratio [1]: > 14400
EC50 [2]: 0.0063 µM
EC50 [3]: 0.0064 µM
CC50 at 120 h [5]: > 93.6 µM

COc1ccc(CSc2nc(C(C#N)c3ccccc3Cl)c(C)c(=O)[nH]2)cc1 (stereo not drawn)
selectivity ratio [1]: 239
IC50 [6]: 0.51 µM
EC50 [2]: > 116 µM
EC50 [3]: 0.49 µM
EC50 [4]: > 116 µM
CC50 at 120 h [5]: 116 µM

COc1ccc(CSc2nc(C(C#N)c3c(F)cccc3Cl)c(C)c(=O)[nH]2)cc1 (stereo not drawn)
selectivity ratio [1]: 548
IC50 [6]: 0.17 µM
EC50 [2]: > 50.1 µM
EC50 [3]: 0.091 µM
EC50 [4]: > 50.1 µM
CC50 at 120 h [5]: 50.1 µM

O=C1Nc2ccc(Cl)cc2[C@@](C#CC2CC2)(C(F)(F)F)O1 [EFAVIRENZ]
CC50 at 120 h [5]: > 6.34 µM

Nc1ccn([C@H]2CC[C@@H](CO)O2)c(=O)n1 [ZALCITABINE]
selectivity ratio [1]: > 169
EC50 [3]: 0.57 µM
EC50 [4]: 1.61 µM
CC50 at 120 h [5]: > 94.7 µM

COc1ccc(CSc2nc(C(C#N)c3ccccc3Br)c(C)c(=O)[nH]2)cc1 (stereo not drawn)
selectivity ratio [1]: 208
IC50 [6]: 1.55 µM
EC50 [2]: > 86.7 µM
EC50 [3]: 0.42 µM
EC50 [4]: > 86.7 µM
CC50 at 120 h [5]: 86.7 µM

COc1ccc(CSc2nc(C(C#N)c3ccc(Br)cc3F)c(C)c(=O)[nH]2)cc1 (stereo not drawn)
selectivity ratio [1]: < 1
EC50 [3]: > 22.5 µM
EC50 [4]: > 22.5 µM
CC50 at 120 h [5]: 22.5 µM

CCc1c(C(C#N)c2cccc(F)c2)nc(SCc2ccc(OC)cc2)[nH]c1=O (stereo not drawn)
selectivity ratio [1]: 24
EC50 [2]: > 173 µM
EC50 [3]: 7.08 µM
EC50 [4]: > 173 µM
CC50 at 120 h [5]: 173 µM

Cc1ccnc2c1NC(=O)c1cccnc1N2C1CC1 [NEVIRAPINE]
CC50 at 120 h [5]: > 15 µM

COc1ccc(CSc2nc(C(C#N)c3ccccc3Cl)c(C(C)C)c(=O)[nH]2)cc1 (stereo not drawn)
selectivity ratio [1]: 7
EC50 [2]: > 27.4 µM
EC50 [3]: 3.91 µM
EC50 [4]: > 27.4 µM
CC50 at 120 h [5]: 27.4 µM

CCc1c(C(C#N)c2ccc(Br)cc2)nc(SCc2ccc(OC)cc2)[nH]c1=O (stereo not drawn)
selectivity ratio [1]: < 1
EC50 [3]: > 23.9 µM
EC50 [4]: > 23.9 µM
CC50 at 120 h [5]: 23.9 µM

COc1ccc(CSc2nc(C(C#N)c3cccc(Br)c3)c(C(C)C)c(=O)[nH]2)cc1 (stereo not drawn)
selectivity ratio [1]: 21
EC50 [2]: > 119 µM
EC50 [3]: 5.72 µM
EC50 [4]: > 119 µM
CC50 at 120 h [5]: 119 µM

COc1ccc(CSc2nc(C(C#N)c3ccc(F)cc3)c(C)c(=O)[nH]2)cc1 (stereo not drawn)
selectivity ratio [1]: < 1
EC50 [3]: > 95.2 µM
EC50 [4]: > 95.2 µM
CC50 at 120 h [5]: 95.2 µM

COc1ccc(CSc2nc(C(C#N)c3ccc(Cl)cc3)c(C(C)C)c(=O)[nH]2)cc1 (stereo not drawn)
selectivity ratio [1]: ≤ 2
EC50 [2]: > 85.2 µM
EC50 [3]: > 40.7 µM
EC50 [4]: > 85.2 µM
CC50 at 120 h [5]: 85.2 µM

COc1ccc(CSc2nc(C(C#N)c3cccc(Br)c3)c(C)c(=O)[nH]2)cc1 (stereo not drawn)
selectivity ratio [1]: 10
EC50 [2]: > 156 µM
EC50 [3]: 16.3 µM
EC50 [4]: > 156 µM
CC50 at 120 h [5]: 156 µM

CCc1c(C(C#N)c2ccccc2Cl)nc(SCc2ccc(OC)cc2)[nH]c1=O (stereo not drawn)
selectivity ratio [1]: 57
EC50 [2]: > 76.9 µM
EC50 [3]: 1.34 µM
EC50 [4]: > 76.9 µM
CC50 at 120 h [5]: 76.9 µM

COc1ccc(CSc2nc(C(C#N)c3cccc(F)c3)c(C)c(=O)[nH]2)cc1 (stereo not drawn)
selectivity ratio [1]: 6
EC50 [2]: > 173 µM
EC50 [3]: 29.1 µM
EC50 [4]: > 173 µM
CC50 at 120 h [5]: 173 µM

CC(C)Nc1cccnc1N1CCN(C(=O)c2cc3cc(NS(C)(=O)=O)ccc3[nH]2)CC1 [DELAVIRDINE]
selectivity ratio [1]: > 338
EC50 [2]: > 36.2 µM
CC50 at 120 h [5]: > 36.2 µM

COc1ccc(CSc2nc(C(C#N)c3ccc(F)cc3)c(C(C)C)c(=O)[nH]2)cc1 (stereo not drawn)
selectivity ratio [1]: 7
EC50 [2]: > 137 µM
EC50 [3]: 20.4 µM
EC50 [4]: > 137 µM
CC50 at 120 h [5]: 137 µM

COc1ccc(CSc2nc(C(C#N)c3cccc(Cl)c3)c(C)c(=O)[nH]2)cc1 (stereo not drawn)
selectivity ratio [1]: 9
EC50 [2]: > 161 µM
EC50 [3]: 18 µM
EC50 [4]: > 161 µM
CC50 at 120 h [5]: 161 µM
